Measurements published in US6379563B1, “Alkylamines as biofilm deactivation agents” (Albemarle Corporation, priority 2000, dated 2002).
Where two headings read alike, the source gives them in different places.

Key:
[1] = test system: Pseudomonas aeruginosa (ATCC 15442) biofilms; assay: MBEC test, 24-hour biofilm, one hour biocide challenge;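 for all read-outs here: Peg-grown biofilms exposed to biocide, then regrowth in broth 18 h at 35 °C, turbidity by absorbance at 650 nm, above 0.100 counted as growth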; type: cell-based; conditions: for minimum biofilm eradication concentration (MBEC) / MBC: Pseudomonas aeruginosa, ATCC15442, 1 h; for minimum biofilm eradication concentration (MBEC) / biofilm deactivation at 200 ppm (regrowth optical density measurements) / MBEC, avg. / MBEC, ppm (first of duplicate runs) / MBEC, ppm (second of duplicate runs): 24-hour biofilm, 1 hour contact
Source text: The MBEC technique consists of growing identical 24-hour biofilms on 96 pegs arrayed in 12 rows and 8 columns. The biofilms then are challenged with decreasing concentrations of selected antibiotics and/or biocides. After a certain challenge time (generally one hour), the biofilms are placed in 96 individual wells of growth media and ultra-sonicated to deactivate any surviving organisms. After culturing overnight, the wells are checked for turbidity. Clear, transparent wells indicate complete deactivation of the biofilm. Conversely, turbidity (“growth”) indicates lack of complete deactivation of the biofilm.
The minimum biofilm deactivation concentration (MBEC) is defined as the minimum concentration of an agent that completely deactivates biofilm bacteria. […] Unless otherwise indicated, the biofilms used in the examples below consisted of a pure culture of Pseudomonas aeruginosa (ATCC 15442).
Pseudomonas aeruginosa (ATCC 15442) biofilms were prepared on the 96 pegs of the MBEC plate by aerobic incubation in simple salts medium with 0.1% glucose (24 hours, 35° C.). The pegs were rinsed in synthetic water (SW) and then challenged by the biocide for one hour. Following the biocide challenge, the pegs were rinsed twice with SW and then sonicated into Mueller-Hinton broth (225 μL per well). The broth was then incubated for 18 hours at 35° C.

[2] = from Bodor, Gabanyi, Wang, JACS 111, 3783 (1989); cited from earlier work
[3] = test system: 7-day biofilm formed using P. aeruginosa; assay: MBEC test, 7-day biofilm, one hour biocide challenge; type: cell-based, Pseudomonas aeruginosa; conditions: 1 hour contact; for MBEC, avg., Example 4 / MBEC, ppm (first of duplicate runs), Example 4 / MBEC, ppm (second of duplicate runs), Example 4: Example 4, ppm oxidant (as Cl2) or ppm active
Source text: The MBEC technique consists of growing identical 24-hour biofilms on 96 pegs arrayed in 12 rows and 8 columns. The biofilms then are challenged with decreasing concentrations of selected antibiotics and/or biocides. After a certain challenge time (generally one hour), the biofilms are placed in 96 individual wells of growth media and ultra-sonicated to […] any surviving organisms. After culturing overnight, the wells are checked for turbidity. Clear, transparent wells indicate complete deactivation of the biofilm. Conversely, turbidity (“growth”) indicates lack of complete deactivation of the biofilm.
After the 18 hour incubation period, the recovery wells were checked for turbidity. Clear, transparent wells indicated complete deactivation of the biofilm. Conversely, turbidity indicated the lack of complete deactivation of the biofilm. The minimum biofilm deactivation concentration (MBEC) is defined as the minimum concentration of agent which results in complete deactivation of the biofilm. MBEC endpoints were unambiguously determined by absorbance at 650 nm. using UV visible spectroscopy. An absorbance >0.100 was considered a positive indication of growth.
Pseudomonas aeruginosa (ATCC 15442) biofilms were prepared as described in Example I. The 7-day biofilms were prepared by a modification of the above procedure. Each day, spent media was replaced with fresh media and inocula.
Older biofilms offer increased resistance to biocides. Studies were extended to 7-day biofilms formed using P. aeruginosa. The procedure used to form the 7-day biofilm was the same as in Example 1, except that each day, spent media was replaced with fresh media and inocula. This biofilm was then challenged with oxidizing and non-oxidizing biocides.
Another 7-day biofilm was prepared from P. aeruginosa, as in EXAMPLE 3. This biofilm was then challenged with several common oxidizing and non-oxidizing biocides.

[4] = average of duplicate runs, blends: total amount of components (1:1 ratio), read-out: MBEC, avg.
[5] = blends: total amount of components (1:1 ratio), read-out: MBEC, ppm (first of duplicate runs)
[6] = blends: total amount of components (1:1 ratio), read-out: MBEC, ppm (second of duplicate runs)
[7] = blends: total biocide, read-out: MBEC
[8] = average of duplicate runs, blends: total amount of components (1:1 ratio)
[9] = blends: total amount of components (1:1 ratio)
[10] = read-out: MBEC, avg., 24-hour biofilm, 1 hour contact, average of duplicate runs, blends: total amount of components (1:1 ratio)
[11] = read-out: MBEC, ppm (first of duplicate runs), 24-hour biofilm, 1 hour contact, blends: total amount of components (1:1 ratio)
[12] = read-out: MBEC, ppm (second of duplicate runs), 24-hour biofilm, 1 hour contact, blends: total amount of components (1:1 ratio)
[13] = Example 3, ppm oxidant (as Cl2) or ppm active

`CCCCCCCCCCN(C)CCCCCCCCCC` [DAMA 1010 Amine, didecylmethylamine] showed a minimum biofilm eradication concentration (MBEC) [1, 4] of 400 µg/mL, a minimum biofilm eradication concentration (MBEC) [1, 5] of 400 µg/mL and a minimum biofilm eradication concentration (MBEC) [1, 6] of 400 µg/mL. The minimum biofilm eradication concentration (MBEC) [1, 7] was 400 µg/mL.

With `CCCCCCCCCCCCCCCCN(C)C` [N,N-Dimethylhexadecylamine] the “biofilm deactivation at 200 ppm (regrowth optical density measurements)” value [1] was “evidence of biofilm deactivation”, the minimum biofilm eradication concentration (MBEC) [1, 4] was greater than 200 µg/mL and the minimum biofilm eradication concentration (MBEC) [1, 5] was greater than 200 µg/mL. The minimum biofilm eradication concentration (MBEC) [1, 6] was greater than 200 µg/mL and the minimum biofilm eradication concentration (MBEC) [1, 7] was 400 to 800 µg/mL.

For `CCCCCCCCCCCCCCCCN` [1-Hexadecylamine], the minimum biofilm eradication concentration (MBEC) [1, 4] was 200 µg/mL, the minimum biofilm eradication concentration (MBEC) [1, 5] was 200 µg/mL and the minimum biofilm eradication concentration (MBEC) [1, 6] was 200 µg/mL. It also gave a minimum biofilm eradication concentration (MBEC) [1, 7] of 200 µg/mL.

`CCCCCCCCN(C)C` [N,N-Dimethyloctylamine] showed a minimum biofilm eradication concentration (MBEC) [1, 4] greater than 800 µg/mL, a minimum biofilm eradication concentration (MBEC) [1, 5] greater than 800 µg/mL and a minimum biofilm eradication concentration (MBEC) [1, 6] greater than 800 µg/mL.

Work on `CCCCCCN` [1-Hexylamine] yielded a minimum biofilm eradication concentration (MBEC) [1, 4] of 1600 µg/mL, a minimum biofilm eradication concentration (MBEC) [1, 5] of 1600 µg/mL and a minimum biofilm eradication concentration (MBEC) [1, 6] of 1600 µg/mL.

With `CCCCCCCCCCCCCCN(C)C` [N,N-Dimethyltetradecylamine] the “biofilm deactivation at 200 ppm (regrowth optical density measurements)” value [1] was “evidence of biofilm deactivation”, the minimum biofilm eradication concentration (MBEC) [1, 4] was greater than 200 µg/mL and the minimum biofilm eradication concentration (MBEC) [1, 5] was greater than 200 µg/mL. For the same compound, the minimum biofilm eradication concentration (MBEC) [1, 6] was greater than 200 µg/mL and the minimum biofilm eradication concentration (MBEC) [1, 7] was 400 to 800 µg/mL.

`CCCCCCCCNCCCCCCCC` [N,N-Dioctylamine] showed a minimum biofilm eradication concentration (MBEC) [1, 4] of 1600 µg/mL, a minimum biofilm eradication concentration (MBEC) [1, 5] of 1600 µg/mL and a minimum biofilm eradication concentration (MBEC) [1, 6] of 1600 µg/mL. The minimum biofilm eradication concentration (MBEC) [1, 7] was 1600 µg/mL.

Compound `CCCCCCCCN(C)CCCCCCCC` [CH3(C8H17)2N, Dioctylmethylamine] has a minimum biofilm eradication concentration (MBEC) [1, 4] of 800 µg/mL, a minimum biofilm eradication concentration (MBEC) [1, 5] of 800 µg/mL and a minimum biofilm eradication concentration (MBEC) [1, 6] of 800 µg/mL. It also gave a minimum biofilm eradication concentration (MBEC) [1, 7] of 800 µg/mL.

With `CCCCCCN(C)CCCCCC` [CH3(C6H13)2N] the “MBEC, avg.” value [1, 8] was greater than 800 ppm, the “MBEC, ppm (first of duplicate runs)” value [1, 9] was >800, >800 ppm and the “MBEC, ppm (second of duplicate runs)” value [1, 9] was >800, >800 ppm.

`OC[P+](CO)(CO)CO.[Cl-]` [THPC, tetrakis(hydroxymethyl)phosphonium chloride, reference compound] gave an MBC [1, 10] of 100 µg/mL, an MBC [1, 11] of 100 µg/mL and an MBC [1, 12] of 100 µg/mL.

For `CCCCN(C)C` [N,N-Dimethylbutylamine], the logKow experimental [2] is listed as 1.70.

For `CCCCCCCCN` [1-Octylamine], the minimum biofilm eradication concentration (MBEC) [1, 4] was 400 µg/mL, the minimum biofilm eradication concentration (MBEC) [1, 5] was 400 µg/mL and the minimum biofilm eradication concentration (MBEC) [1, 6] was 400 µg/mL. It also gave a minimum biofilm eradication concentration (MBEC) [1, 7] of 400 µg/mL.

In the case of `O=CCCCC=O` [glutaraldehyde, reference compound], the “MBEC on 7-day biofilm” value [3] was “about 200 ppm”, the “MBEC, avg., Example 3” value [3, 13] was “˜200 ppm” and the “MBEC, ppm (first of duplicate runs), Example 3” value [3, 13] was 100 ppm. For the same compound, the “MBEC, ppm (second of duplicate runs), Example 3” value [3, 13] was greater than 200 ppm, the minimum biofilm eradication concentration (MBEC) [1, 4] was 50 µg/mL and the minimum biofilm eradication concentration (MBEC) [1, 5] was 50 µg/mL. For the same compound, the minimum biofilm eradication concentration (MBEC) [1, 6] was 50 µg/mL and the minimum biofilm eradication concentration (MBEC) [1, 7] was 50 to 100 µg/mL.

In the case of `O=c1n(Cl)c(=O)n(Cl)c(=O)n1Cl` [Cl2 (from Trichlor), trichloroisocyanuric acid], the “MBEC on 7-day biofilm” value [3] was 20 ppm, the “MBEC, ppm (first of duplicate runs), Example 3” value [3, 13] was 5 ppm and the “MBEC, ppm (second of duplicate runs), Example 3” value [3, 13] was greater than 10 ppm. For the same compound, the “MBEC, avg., Example 4” value [3] was 20 ppm, the “MBEC, ppm (first of duplicate runs), Example 4” value [3] was 20, 20 ppm and the “MBEC, ppm (second of duplicate runs), Example 4” value [3] was 20, 20 ppm.

In the case of `CCCCCCCCCCCCN(C)C` [N,N-Dimethyldodecylamine], the MBC [1, 10] was greater than 200 µg/mL, the MBC [1, 11] was greater than 200 µg/mL and the MBC [1, 12] was greater than 200 µg/mL.

Compound `CCCCCCCCCCCCCCN` [1-Tetradecylamine] has a minimum biofilm eradication concentration (MBEC) [1, 4] of 25 µg/mL, a minimum biofilm eradication concentration (MBEC) [1, 5] of 25 µg/mL and a minimum biofilm eradication concentration (MBEC) [1, 6] of 25 µg/mL. The minimum biofilm eradication concentration (MBEC) [1, 7] was 25 µg/mL.

For `CCCCN` [1-Butylamine], the logKow experimental [2] is given as 0.87.

For `CCCCNCCCC` [N,N-Dibutylamine], the minimum biofilm eradication concentration (MBEC) [1, 4] was greater than 1600 µg/mL, the minimum biofilm eradication concentration (MBEC) [1, 5] was greater than 1600 µg/mL and the minimum biofilm eradication concentration (MBEC) [1, 6] was greater than 1600 µg/mL. The logKow experimental [2] was 2.76.

For `CCCCCCCCCCCCN` [1-Dodecylamine], the “MBEC on 7-day biofilm” value [3] was 75 ppm, the “MBEC, avg., Example 4” value [3] was 75 ppm and the “MBEC, ppm (first of duplicate runs), Example 4” value [3] was 100 ppm. The “MBEC, ppm (second of duplicate runs), Example 4” value [3] was 50 ppm, the minimum biofilm eradication concentration (MBEC) [1, 4] was 25 µg/mL and the minimum biofilm eradication concentration (MBEC) [1, 5] was 25 µg/mL. It also gave a minimum biofilm eradication concentration (MBEC) [1, 6] of 25 µg/mL and a minimum biofilm eradication concentration (MBEC) [1, 7] of roughly 38 µg/mL.

`CCCCCCCCCCN(C)C` [N,N-Dimethyldecylamine] showed a minimum biofilm eradication concentration (MBEC) [1, 4] greater than 400 µg/mL, a minimum biofilm eradication concentration (MBEC) [1, 5] greater than 400 µg/mL and a minimum biofilm eradication concentration (MBEC) [1, 6] greater than 400 µg/mL.

For `CCCCCCCCCCN` [1-Decylamine], the minimum biofilm eradication concentration (MBEC) [1, 4] was 200 µg/mL, the minimum biofilm eradication concentration (MBEC) [1, 5] was 200 µg/mL and the minimum biofilm eradication concentration (MBEC) [1, 6] was 200 µg/mL. The minimum biofilm eradication concentration (MBEC) [1, 7] was 200 µg/mL.

For `CCCCN(C)CCCC` [CH3(C4H9)2N], the “MBEC, avg.” value [1, 8] was greater than 800 ppm, the “MBEC, ppm (first of duplicate runs)” value [1, 9] was >800, >800 ppm and the “MBEC, ppm (second of duplicate runs)” value [1, 9] was >800, >800 ppm.

In the case of `CCCCCCCCCC[N+](C)(C)CCCCCCCCCC.[Cl-]` [DAQ 1010, Didecyldimethyl ammonium chloride], the “MBEC on 7-day biofilm” value [3] was 75 ppm, the “MBEC, avg., Example 4” value [3] was 75 ppm and the “MBEC, ppm (first of duplicate runs), Example 4” value [3] was 100 ppm. The “MBEC, ppm (second of duplicate runs), Example 4” value [3] was 50 ppm, the MBC ([1]; read-out: MBEC, 24-hour biofilm, 1 hour contact, blends: total biocide) was roughly 38 µg/mL and the MBC [1, 10] was 50 µg/mL. It also gave an MBC [1, 12] of 25 µg/mL.
